# Source: ChEMBL document CHEMBL1201862, “PubChem BioAssay data set” (2004)
# The source made the active and inactive calls.
# Key:
# [1] = system: Streptococcus sp. 'group A'; experiment: growth inhibition of control SK(-) GAS strain, dose response, counter-screen for streptokinase expression inhibitor project, luminescence, kanamycin, BacTiterGlo, confirmation (AID 1900); assay type: functional, organism-based
# BJ [2] = experiment: cytotoxicity toward BJ-TERT fibroblasts, dose response, cell-based, RAS-independent, luminescence (AID 1933); assay type: functional; conditions: Homo sapiens
# Beta-galactosidase = Beta-galactosidase (Escherichia coli, UniProt Q8VNN2); experiment: PubChem AID 485352; assay type: functional
# Sequence of Beta-galactosidase (Q8VNN2 whole entry): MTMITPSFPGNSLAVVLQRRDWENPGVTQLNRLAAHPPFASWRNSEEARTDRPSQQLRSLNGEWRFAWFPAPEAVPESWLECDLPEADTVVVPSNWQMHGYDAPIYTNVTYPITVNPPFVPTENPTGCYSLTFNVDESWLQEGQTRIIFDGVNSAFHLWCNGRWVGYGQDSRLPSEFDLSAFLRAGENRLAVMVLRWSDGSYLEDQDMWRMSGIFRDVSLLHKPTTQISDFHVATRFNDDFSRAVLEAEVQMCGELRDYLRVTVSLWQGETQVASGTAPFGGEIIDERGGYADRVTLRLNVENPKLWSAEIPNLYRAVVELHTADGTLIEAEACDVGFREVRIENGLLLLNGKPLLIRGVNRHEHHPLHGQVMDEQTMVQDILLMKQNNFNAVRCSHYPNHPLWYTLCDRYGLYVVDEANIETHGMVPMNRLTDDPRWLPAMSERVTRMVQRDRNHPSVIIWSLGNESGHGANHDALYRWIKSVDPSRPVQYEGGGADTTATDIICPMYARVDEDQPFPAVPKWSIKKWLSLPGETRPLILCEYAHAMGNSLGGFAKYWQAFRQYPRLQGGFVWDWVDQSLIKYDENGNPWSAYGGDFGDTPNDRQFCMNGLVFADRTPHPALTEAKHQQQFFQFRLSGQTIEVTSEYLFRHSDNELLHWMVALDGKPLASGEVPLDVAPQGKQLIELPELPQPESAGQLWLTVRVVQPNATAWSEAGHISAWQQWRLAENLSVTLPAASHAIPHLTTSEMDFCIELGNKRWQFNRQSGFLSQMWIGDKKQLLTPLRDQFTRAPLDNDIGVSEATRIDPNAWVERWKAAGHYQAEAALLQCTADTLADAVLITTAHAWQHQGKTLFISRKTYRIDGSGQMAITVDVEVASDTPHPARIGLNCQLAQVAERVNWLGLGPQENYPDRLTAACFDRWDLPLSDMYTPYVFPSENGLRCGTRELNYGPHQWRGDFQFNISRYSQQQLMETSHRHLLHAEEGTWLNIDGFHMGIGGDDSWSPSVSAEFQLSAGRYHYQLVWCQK
# BJ [3] = experiment: cells; assay type: functional, cell-based; conditions: Homo sapiens
# [4] = inhibitors of intracellular T. cruzi replication, confirmation, NIH3T3 host cells, beta-gal luminescence (AID 2044); assay type: functional, cell-based;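 also: intracellular parasites grown in NIH/3T3 mouse fibroblasts as host cells; luminescent beta-galactosidase reporter signal from transgenic T. cruzi replicating inside host cells; inhibitors lower the luminescence signal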
# [5] = molecular target: T1, Type-1 angiotensin II receptor (Homo sapiens, UniProt P30556); experiment: AT1 receptor antagonists, dose response, selectivity assay for APJ receptor antagonist project, cell-based, uHTS hits (AID 463214); assay type: functional;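 also: antagonist potency against angiotensin II stimulated AT1 response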
# T1 sequence (P30556 whole entry): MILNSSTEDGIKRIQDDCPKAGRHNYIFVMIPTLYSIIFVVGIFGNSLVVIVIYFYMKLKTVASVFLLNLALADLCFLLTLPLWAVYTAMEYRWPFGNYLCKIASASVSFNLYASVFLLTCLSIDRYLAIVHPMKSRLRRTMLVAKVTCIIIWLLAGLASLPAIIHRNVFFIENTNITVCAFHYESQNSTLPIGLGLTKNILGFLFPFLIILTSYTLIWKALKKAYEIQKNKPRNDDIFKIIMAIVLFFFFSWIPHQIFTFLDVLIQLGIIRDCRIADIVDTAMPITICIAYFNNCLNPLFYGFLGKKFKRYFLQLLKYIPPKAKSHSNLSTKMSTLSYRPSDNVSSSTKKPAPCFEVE
# [6] = cytotoxicity toward NIH3T3 fibroblasts, dose response, counter-screen, cell-based, ATP luminescence, mouse fibroblasts (AID 2010); assay type: functional;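 also: cells exposed to compound for about 90 hours before reading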
# BJ [7] = experiment: cytotoxicity toward BJ-TERT-LT-ST fibroblasts, dose response, cell-based, RAS-independent, luminescence (AID 1935); assay type: functional; conditions: Homo sapiens;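 also: BJ fibroblasts immortalized with TERT plus LT and ST oncogenes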
# [8] = cytotoxicity toward DRD oncogenic fibroblasts, dose response, cell-based, non-viral oncogenic, luminescence (AID 1934); assay type: functional; conditions: Homo sapiens
# Streptococcus = experiment: Group A Streptococcus viability loss, dose response, counter-screen for streptokinase expression inhibitor project, luminescence, BacTiterGlo (AID 1915); assay type: functional, organism-based;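 also: potency for reduction of bacterial viability or growth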
# Nonstructural protein 1 = Nonstructural protein 1 (Influenza A virus, UniProt Q194T2); assay type: functional, Influenza A virus (A/California/07/2009(H1N1))
# Sequence of Nonstructural protein 1 (Q194T2 whole entry): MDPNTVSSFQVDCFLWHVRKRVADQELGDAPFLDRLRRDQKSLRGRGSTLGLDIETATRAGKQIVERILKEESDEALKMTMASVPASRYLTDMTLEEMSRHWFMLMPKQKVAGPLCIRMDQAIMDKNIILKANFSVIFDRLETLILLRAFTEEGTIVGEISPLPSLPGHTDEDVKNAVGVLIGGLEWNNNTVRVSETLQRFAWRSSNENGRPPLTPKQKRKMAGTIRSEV
# [9] = molecular target: T2, Replicative DNA helicase DnaB (Mycobacterium tuberculosis, UniProt P9WMR3); experiment: DnaB intein splicing inhibitors, dose response, biochemical, cell-free fluorescence (AID 449749); assay type: functional
# T2 sequence (P9WMR3 whole entry): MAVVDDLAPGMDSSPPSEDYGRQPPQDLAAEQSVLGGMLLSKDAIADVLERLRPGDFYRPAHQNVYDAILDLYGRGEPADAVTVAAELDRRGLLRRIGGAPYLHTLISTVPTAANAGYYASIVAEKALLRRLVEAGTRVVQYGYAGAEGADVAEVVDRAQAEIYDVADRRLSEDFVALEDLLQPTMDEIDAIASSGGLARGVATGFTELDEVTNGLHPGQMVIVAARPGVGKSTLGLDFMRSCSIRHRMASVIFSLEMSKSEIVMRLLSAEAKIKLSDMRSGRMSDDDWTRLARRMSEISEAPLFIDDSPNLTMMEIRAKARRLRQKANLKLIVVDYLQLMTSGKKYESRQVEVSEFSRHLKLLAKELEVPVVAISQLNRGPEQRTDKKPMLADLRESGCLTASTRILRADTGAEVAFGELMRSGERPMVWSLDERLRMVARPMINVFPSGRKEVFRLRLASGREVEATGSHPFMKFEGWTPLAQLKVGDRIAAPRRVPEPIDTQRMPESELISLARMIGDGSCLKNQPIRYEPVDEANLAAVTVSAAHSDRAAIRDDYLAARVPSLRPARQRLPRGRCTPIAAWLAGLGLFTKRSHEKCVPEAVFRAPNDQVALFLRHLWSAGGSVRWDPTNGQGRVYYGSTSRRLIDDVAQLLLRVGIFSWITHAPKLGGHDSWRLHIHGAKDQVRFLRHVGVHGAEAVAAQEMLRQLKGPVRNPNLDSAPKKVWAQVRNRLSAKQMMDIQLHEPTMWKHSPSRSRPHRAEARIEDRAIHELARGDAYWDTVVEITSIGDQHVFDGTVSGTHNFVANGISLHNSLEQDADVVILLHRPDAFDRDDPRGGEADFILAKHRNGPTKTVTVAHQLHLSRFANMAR
# Protein RecA = molecular target: T3, Protein RecA (Mycobacterium tuberculosis, UniProt P9WHJ3); experiment: Fluorescence Cell-Free Homogeneous Dose Retest to Identify Inhibitors of RecA-Intein Splicing Activity. [Related pubchem assays (depositor defined):AID2097, AID2223, AID489010, AID492950]; assay type: functional
# T3 sequence (P9WHJ3 whole entry): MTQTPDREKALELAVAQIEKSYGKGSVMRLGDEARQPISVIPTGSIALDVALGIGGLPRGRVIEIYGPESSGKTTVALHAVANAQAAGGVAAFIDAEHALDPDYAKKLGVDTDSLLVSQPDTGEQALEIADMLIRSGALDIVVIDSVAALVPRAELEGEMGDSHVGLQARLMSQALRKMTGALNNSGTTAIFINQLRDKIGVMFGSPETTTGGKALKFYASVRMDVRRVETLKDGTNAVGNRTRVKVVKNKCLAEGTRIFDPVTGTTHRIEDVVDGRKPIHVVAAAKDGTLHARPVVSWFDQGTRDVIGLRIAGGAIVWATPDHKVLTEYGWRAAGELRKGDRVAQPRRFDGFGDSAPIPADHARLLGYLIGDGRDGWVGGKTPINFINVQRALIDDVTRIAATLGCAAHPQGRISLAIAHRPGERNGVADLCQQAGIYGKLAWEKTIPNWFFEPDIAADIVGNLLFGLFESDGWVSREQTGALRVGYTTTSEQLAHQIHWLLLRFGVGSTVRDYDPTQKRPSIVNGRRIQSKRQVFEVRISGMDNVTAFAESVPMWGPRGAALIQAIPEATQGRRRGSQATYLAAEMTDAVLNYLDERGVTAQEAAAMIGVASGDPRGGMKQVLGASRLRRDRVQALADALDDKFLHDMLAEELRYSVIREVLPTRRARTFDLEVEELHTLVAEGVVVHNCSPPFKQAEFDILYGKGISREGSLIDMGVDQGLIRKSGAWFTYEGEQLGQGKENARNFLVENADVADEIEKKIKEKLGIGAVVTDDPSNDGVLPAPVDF
# INS1 = experiment: beta cell apoptosis inhibitors, cytokine rescue, dose response, luminescence, retest (AID 449756); assay type: functional, cell-based; conditions: Rattus norvegicus, INS1;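 also: cell death triggered by IL-1 beta plus TNF-alpha plus IFN-gamma mixture; protective hits raise ATP signal compared with cytokine alone wells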
# [10] = Artemis endonuclease inhibitor potency, dose response, biochemical, fluorescence intensity (AID 720701); assay type: functional;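 also: Artemis endonuclease enzyme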
# Kallikrein-7 = Kallikrein-7 (Homo sapiens, UniProt P49862); experiment: Fluorescence Intensity-based biochemical primary high throughput dose response assay to identify activators of kallikrein-7 (K7) zymogen.
# Sequence of Kallikrein-7 (P49862 whole entry): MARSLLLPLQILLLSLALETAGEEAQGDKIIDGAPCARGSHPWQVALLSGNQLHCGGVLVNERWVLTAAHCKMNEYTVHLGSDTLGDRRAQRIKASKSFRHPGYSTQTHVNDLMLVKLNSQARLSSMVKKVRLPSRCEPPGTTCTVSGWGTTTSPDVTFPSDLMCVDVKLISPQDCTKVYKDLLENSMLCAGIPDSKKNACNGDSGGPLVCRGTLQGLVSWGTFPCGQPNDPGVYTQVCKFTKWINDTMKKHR
# [11] = molecular target: Glucose-6-phosphate 1-dehydrogenase (Homo sapiens, UniProt P11413); experiment: human G6PD enzyme inhibitors, dose response, selectivity assay for P. falciparum G6PD inhibitor project, biochemical, fluorescence (AID 504792); assay type: functional
# Sequence of Glucose-6-phosphate 1-dehydrogenase (P11413 whole entry): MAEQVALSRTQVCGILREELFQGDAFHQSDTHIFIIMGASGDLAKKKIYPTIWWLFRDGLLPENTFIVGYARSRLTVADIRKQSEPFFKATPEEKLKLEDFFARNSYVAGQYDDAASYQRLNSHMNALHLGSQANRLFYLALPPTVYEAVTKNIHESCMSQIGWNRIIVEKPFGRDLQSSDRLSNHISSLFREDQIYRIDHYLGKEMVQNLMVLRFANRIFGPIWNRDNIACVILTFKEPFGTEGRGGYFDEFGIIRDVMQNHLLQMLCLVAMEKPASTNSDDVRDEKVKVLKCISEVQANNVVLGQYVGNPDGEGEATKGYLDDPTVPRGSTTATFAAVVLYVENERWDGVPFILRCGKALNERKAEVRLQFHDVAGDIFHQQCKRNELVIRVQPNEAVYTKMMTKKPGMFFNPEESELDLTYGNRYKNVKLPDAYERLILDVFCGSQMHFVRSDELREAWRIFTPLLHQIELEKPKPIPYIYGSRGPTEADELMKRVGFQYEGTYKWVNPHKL
# [12] = molecular target: T4, Small ubiquitin-related modifier 1 (Homo sapiens, UniProt P63165); experiment: inhibitors of SUMO1 peptide binding, dose response, biochemical, fluorescence polarization, uHTS hits (AID 624382); assay type: functional; conditions: read-out: IC50_Mean
# T4 sequence (P63165 whole entry): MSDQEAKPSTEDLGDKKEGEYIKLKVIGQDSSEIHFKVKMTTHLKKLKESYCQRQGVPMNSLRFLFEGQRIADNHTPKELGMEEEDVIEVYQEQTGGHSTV
# [13] = molecular target: T4, Small ubiquitin-related modifier 1; experiment: inhibitors of SUMO1 partner interactions, dose response, biochemical, FRET (AID 624383); assay type: functional; conditions: read-out: IC50_Mean
# [14] = HeLa cell cytotoxicity, dose response, cytotoxicity control for MgcRacGAP inhibitor project (AID 624300); assay type: functional
# [15] = molecular target: T5, Rac GTPase-activating protein 1 (Homo sapiens, UniProt Q9H0H5); experiment: MgcRacGAP GTPase-activating activity inhibitors, confirmation, biochemical, ADP Hunter fluorescence, primary and confirmatory (AID 624330); assay type: functional
# T5 sequence (Q9H0H5 whole entry): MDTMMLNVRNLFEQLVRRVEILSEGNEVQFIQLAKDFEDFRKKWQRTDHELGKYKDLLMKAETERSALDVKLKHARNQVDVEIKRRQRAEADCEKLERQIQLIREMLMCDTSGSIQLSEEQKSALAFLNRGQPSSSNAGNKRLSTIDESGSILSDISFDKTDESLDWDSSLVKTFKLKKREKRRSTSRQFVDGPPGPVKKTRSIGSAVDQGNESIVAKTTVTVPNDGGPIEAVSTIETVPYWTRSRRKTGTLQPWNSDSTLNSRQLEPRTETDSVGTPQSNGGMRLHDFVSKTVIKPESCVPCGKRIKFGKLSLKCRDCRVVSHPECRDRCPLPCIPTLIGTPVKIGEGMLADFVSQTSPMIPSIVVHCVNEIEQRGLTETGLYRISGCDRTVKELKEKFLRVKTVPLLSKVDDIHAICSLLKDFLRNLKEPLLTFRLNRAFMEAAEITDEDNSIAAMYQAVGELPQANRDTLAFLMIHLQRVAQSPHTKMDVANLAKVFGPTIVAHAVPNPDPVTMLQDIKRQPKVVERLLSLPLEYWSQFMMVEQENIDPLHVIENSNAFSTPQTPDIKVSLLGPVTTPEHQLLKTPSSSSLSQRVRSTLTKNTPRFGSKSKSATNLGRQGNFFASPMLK
# [16] = molecular target: T6, DNA repair protein RAD52 homolog (Homo sapiens, UniProt P43351); assay type: functional, biochemical
# T6 sequence (P43351 whole entry): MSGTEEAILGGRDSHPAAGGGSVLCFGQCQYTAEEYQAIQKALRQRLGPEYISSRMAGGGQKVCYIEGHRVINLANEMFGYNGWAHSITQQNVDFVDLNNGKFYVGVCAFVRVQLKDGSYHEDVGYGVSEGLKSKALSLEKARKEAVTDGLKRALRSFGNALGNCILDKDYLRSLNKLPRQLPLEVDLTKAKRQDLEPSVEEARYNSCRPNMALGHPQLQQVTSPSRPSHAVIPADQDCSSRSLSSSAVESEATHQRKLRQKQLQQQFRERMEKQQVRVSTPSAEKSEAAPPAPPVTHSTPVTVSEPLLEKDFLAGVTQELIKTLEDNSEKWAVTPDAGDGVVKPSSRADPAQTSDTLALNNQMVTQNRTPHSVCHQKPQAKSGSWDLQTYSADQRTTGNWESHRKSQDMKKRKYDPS
# [17] = THP-1 cell cytotoxicity, dose response, cytotoxicity control for Vif-APOBEC3G degradation inhibitor project, THP-1 cells (AID 1117359); assay type: functional; conditions: Human immunodeficiency virus 1, THP-1
# [18] = molecular target: Glutathione-S-transferase (Schistosoma japonicum, UniProt Q26513); experiment: biotin-GST/anti-GST TR-FRET signal inhibitors, dose response, artefact control for Vif-APOBEC3G degradation inhibitor project, biochemical (AID 1117362); assay type: functional
# Sequence of Glutathione-S-transferase (Q26513 whole entry): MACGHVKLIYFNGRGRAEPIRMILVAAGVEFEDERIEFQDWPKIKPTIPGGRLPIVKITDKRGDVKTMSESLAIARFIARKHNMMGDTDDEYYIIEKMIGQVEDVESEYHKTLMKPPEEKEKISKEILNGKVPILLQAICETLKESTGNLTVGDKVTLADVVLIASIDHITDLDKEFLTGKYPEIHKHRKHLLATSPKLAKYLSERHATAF
# Paired box protein Pax-8 = Paired box protein Pax-8 (Homo sapiens, UniProt Q06710); experiment: inhibitors of PAX8-driven TPO luciferase reporter, dose response, RMG-I cells, cherry-pick (AID 687027); assay type: functional, cell-based;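 also: luciferase reporter driven by Pax8 target thyroperoxidase promoter measured by SteadyGlo luminescence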
# Sequence of Paired box protein Pax-8 (Q06710 whole entry): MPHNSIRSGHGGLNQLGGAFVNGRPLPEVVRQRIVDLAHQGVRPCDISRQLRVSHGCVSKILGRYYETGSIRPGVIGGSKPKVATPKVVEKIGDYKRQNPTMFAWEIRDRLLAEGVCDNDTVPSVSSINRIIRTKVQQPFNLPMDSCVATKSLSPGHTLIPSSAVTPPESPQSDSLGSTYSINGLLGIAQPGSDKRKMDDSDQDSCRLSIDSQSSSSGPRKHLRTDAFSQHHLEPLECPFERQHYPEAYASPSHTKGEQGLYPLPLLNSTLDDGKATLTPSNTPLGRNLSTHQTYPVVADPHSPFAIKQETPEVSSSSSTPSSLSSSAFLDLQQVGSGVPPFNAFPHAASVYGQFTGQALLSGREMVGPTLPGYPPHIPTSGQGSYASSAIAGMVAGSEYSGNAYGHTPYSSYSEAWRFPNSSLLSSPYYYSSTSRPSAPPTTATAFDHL
# [19] = IOSE-T80 ovarian epithelial cell cytotoxicity, dose response, cytotoxicity control for PAX8 inhibitor project, plate reader, dry powder samples (AID 743045); assay type: functional, cell-based
# [20] = A2780 ovarian cancer cell cytotoxicity, dose response, cytotoxicity control, plate reader, dry powder samples (AID 743046); assay type: functional, cell-based
# [21] = inhibitors of PGC1a acetylation in cells, dose response, cell-based, cherry-picked samples (AID 720514); assay type: functional;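 also: potency may reflect raised or lowered acetylation signal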
# [22] = NIH:OVCAR-3 ovarian cancer cell cytotoxicity, dose response, PAX8 inhibitor project, plate reader, dry powder samples (AID 743044); assay type: functional, cell-based
# [23] = IGROV1 ovarian cancer cell cytotoxicity, dose response, PAX8 inhibitor project, plate reader, dry powder samples (AID 743043); assay type: functional, cell-based; conditions: IGROV-1
# [24] = cytotoxicity in OVCAR8 ovarian cancer cells, dose response, PAX8 project, cell-based, plate reader, dry powder samples (AID 743197); assay type: functional; conditions: OVCAR-8
smiles,measurement,setting,value
c1ccc(-c2nc(N3CCCCCC3)c3ccccc3n2)nc1,EC50,[1],0.947 µM (active)
same,EC50,BJ [2],9.59 µM (active)
same,EC50,Beta-galactosidase,> 40 µM (inactive)
same,EC50,BJ [3],25.7 µM (active)
same,EC50,[4],0.845 µM (active)
same,IC50,[5],> 40 µM (not active)
same,EC50,[6],2.24 µM (active)
same,EC50,BJ [7],50.7 µM (inconclusive)
same,EC50,[8],21 µM (active)
same,EC50,Streptococcus,1.19 µM (active)
same,IC50,Nonstructural protein 1,23 µM (active)
same,AC50,[9],36.2 µM (active)
same,EC50,Protein RecA,> 380 µM (inconclusive)
same,AC50,INS1,1.8 µM (active)
same,IC50,[10],4.71 µM (active)
COc1ccc2oc(=O)c(C(=O)N3CCN(C(=O)c4ccccc4)CC3)cc2c1,EC50,Kallikrein-7,> 69.5 µM (inactive)
Cc1cc(C)c2c(=N)c3ccccc3n(CCCCCCCCn3c4ccccc4c(=N)c4c(C)cc(C)nc43)c2n1,IC50,[11],29 µM (inactive)
same,IC50,[12],> 66.6 µM (inactive)
same,IC50,[13],4.83 µM (active)
same,CC50,[14],20.4 µM (active)
same,IC50,[15],26.3 µM (active)
same,AC50,[16],< 0.364 µM (active)
same,CC50,[17],5.65 µM (active)
same,IC50,[18],2.4 µM (active)
N#Cc1ccc(-c2ccc([C@@H]3[C@@H]4CN(S(=O)(=O)c5ccc(-c6ccccc6)cc5)C[C@H]3N4)cc2)cc1,AC50,Paired box protein Pax-8,41.9 µM (active)
same,AC50,[19],23.3 µM (active)
same,AC50,[20],17.8 µM (active)
same,AC50,[21],1.55 µM (active)
same,AC50,[22],28.8 µM (active)
same,AC50,[23],34.9 µM (active)
same,AC50,[24],17.8 µM (active)
